Key:
Experiment in all cases: cells
Type in all cases: functional, cell-based
Conditions in all cases: Homo sapiens
COLO-741 = test system: COLO-741
Description: SANGER: Inhibition of human COLO-741 cell growth in a cell viability assay.

Calu-3 = test system: Calu-3;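 note: growth inhibition of human Calu-3 cells, determined with a cell viability assay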
Description: SANGER: Inhibition of human Calu-3 cell growth in a cell viability assay.

G-361 = test system: G-361
GAMG = test system: GAMG;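 note: cell growth inhibition measured by a viability assay in the GAMG human cell line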
Description: SANGER: Inhibition of human GAMG cell growth in a cell viability assay.

H4 = test system: H4
Description: SANGER: Inhibition of human H4 cell growth in a cell viability assay.

HCC1806 = test system: HCC1806;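 note: growth inhibition of the cancer cell line, determined with a cell viability assay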
Description: SANGER: Inhibition of human HCC1806 cell growth in a cell viability assay.

HCC1937 = test system: HCC1937;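 note: growth inhibition measured with a cell viability read-out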
Description: SANGER: Inhibition of human HCC1937 cell growth in a cell viability assay.

HGC-27 = test system: HGC-27;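 note: growth inhibition of human HGC-27 cells, read out in a cell viability assay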
Description: SANGER: Inhibition of human HGC-27 cell growth in a cell viability assay.

HO-1-N-1 = test system: HO-1-N-1;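 note: growth inhibition of human HO-1-N-1 cells, read out with a cell viability assay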
Description: SANGER: Inhibition of human HO-1-N-1 cell growth in a cell viability assay.

J82 = test system: J82;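 note: growth inhibition of J82 cells, read out with a cell viability assay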
Description: SANGER: Inhibition of human J82 cell growth in a cell viability assay.

KU-19-19 = test system: KU-19-19
Description: SANGER: Inhibition of human KU-19-19 cell growth in a cell viability assay.

KYSE-150 cell line = test system: KYSE-150 cell line;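 note: growth inhibition of human KYSE-150 cells, read out with a cell viability assay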
Description: SANGER: Inhibition of human KYSE-150 cell growth in a cell viability assay.

KYSE-510 = test system: KYSE-510;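 note: cell viability readout used to measure how strongly growth of the cell line is suppressed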
Description: SANGER: Inhibition of human KYSE-510 cell growth in a cell viability assay.

LCLC-97TM1 = test system: LCLC-97TM1;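 note: cell viability assay measuring growth inhibition of human LCLC-97TM1 cells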
Description: SANGER: Inhibition of human LCLC-97TM1 cell growth in a cell viability assay.

LN-405 = test system: LN-405
Description: SANGER: Inhibition of human LN-405 cell growth in a cell viability assay.

MDA-MB-231 = test system: MDA-MB-231
Description: SANGER: Inhibition of human MDA-MB-231 cell growth in a cell viability assay.

MDA-MB-453 = test system: MDA-MB-453
Description: SANGER: Inhibition of human MDA-MB-453 cell growth in a cell viability assay.

MKN-7 = test system: MKN-7;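 note: growth inhibition of MKN-7 cells, read out with a cell viability assay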
Description: SANGER: Inhibition of human MKN7 cell growth in a cell viability assay.

NB12 = test system: NB12;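 note: growth inhibition of human NB12 cells, read out by a cell viability assay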
Description: SANGER: Inhibition of human NB12 cell growth in a cell viability assay.

NCI-H1437 = test system: NCI-H1437;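 note: growth inhibition of human NCI-H1437 cells, read out by a cell viability assay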
Description: SANGER: Inhibition of human NCI-H1437 cell growth in a cell viability assay.

NCI-H1623 = test system: NCI-H1623;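 note: cell viability assay used as the read-out for growth inhibition of NCI-H1623 cells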
Description: SANGER: Inhibition of human NCI-H1623 cell growth in a cell viability assay.

NCI-H1693 = test system: NCI-H1693;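 note: growth inhibition of the human cell line, read out with a cell viability assay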
Description: SANGER: Inhibition of human NCI-H1693 cell growth in a cell viability assay.

NCI-H2452 = test system: NCI-H2452;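 note: growth inhibition of NCI-H2452 cells, read out with a cell viability assay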
Description: SANGER: Inhibition of human NCI-H2452 cell growth in a cell viability assay.

NCI-H292 = test system: NCI-H292;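 note: growth inhibition of NCI-H292 cells, read out with a cell viability assay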
Description: SANGER: Inhibition of human NCI-H292 cell growth in a cell viability assay.

NCI-H520 = test system: NCI-H520;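 note: growth inhibition of NCI-H520 cells, measured by a cell viability assay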
Description: SANGER: Inhibition of human NCI-H520 cell growth in a cell viability assay.

NCI-H661 = test system: NCI-H661;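 note: cell viability assay read-out, IC50 being the concentration that inhibits growth of the cells by half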
Description: SANGER: Inhibition of human NCI-H661 cell growth in a cell viability assay.

NCI-H727 = test system: NCI-H727;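 note: growth inhibition of human NCI-H727 cells, read out with a cell viability assay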
Description: SANGER: Inhibition of human NCI-H727 cell growth in a cell viability assay.

NY = test system: NY
Description: SANGER: Inhibition of human NY cell growth in a cell viability assay.

OE33 = test system: OE33;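 note: growth inhibition of human OE33 cells, measured by a cell viability assay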
Description: SANGER: Inhibition of human OE33 cell growth in a cell viability assay.

PC-14 = test system: PC-14;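 note: cell viability assay measuring inhibition of PC-14 cell growth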
Description: SANGER: Inhibition of human PC-14 cell growth in a cell viability assay.

PC-3 = test system: PC-3;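 note: cell viability assay measuring growth inhibition of PC-3 cells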
Description: SANGER: Inhibition of human PC-3 cell growth in a cell viability assay.

RCM-1 = test system: RCM-1;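 note: growth inhibition of the RCM-1 line, determined with a cell viability readout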
Description: SANGER: Inhibition of human RCM-1 cell growth in a cell viability assay.

RMG-I = test system: RMG-I;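 note: growth inhibition of human RMG-I cells, read out with a cell viability assay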
Description: SANGER: Inhibition of human RMG-I cell growth in a cell viability assay.

RO82-W-1 = test system: RO82-W-1;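 note: growth inhibition of human RO82-W-1 cells, measured with a cell viability assay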
Description: SANGER: Inhibition of human RO82-W-1 cell growth in a cell viability assay.

RVH-421 = test system: RVH-421
Description: SANGER: Inhibition of human RVH-421 cell growth in a cell viability assay.

SK-MES-1 = test system: SK-MES-1;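 note: growth inhibition of human SK-MES-1 cells, read out with a cell viability assay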
Description: SANGER: Inhibition of human SK-MES-1 cell growth in a cell viability assay.

SK-OV-3 = test system: SK-OV-3;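 note: growth inhibition of SK-OV-3 human cells, read out with a cell viability assay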
Description: SANGER: Inhibition of human SK-OV-3 cell growth in a cell viability assay.

SW13 = test system: SW13;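 note: IC50 is inhibition of SW13 cell growth, read out with a cell viability assay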
Description: SANGER: Inhibition of human SW13 cell growth in a cell viability assay.

SW1463 = test system: SW1463;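 note: growth inhibition of SW1463 cells, determined with a cell viability assay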
Description: SANGER: Inhibition of human SW1463 cell growth in a cell viability assay.

T47D = test system: T47D;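 note: growth inhibition of human T47D cells, measured with a cell viability assay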
Description: SANGER: Inhibition of human T47D cell growth in a cell viability assay.

A204 = test system: A204;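 note: growth inhibition of human A204 cells, read out with a cell viability assay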
Description: SANGER: Inhibition of human A204 cell growth in a cell viability assay.

AN3-CA = test system: AN3-CA;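 note: growth inhibition of human AN3-CA cells measured by a cell viability assay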
Description: SANGER: Inhibition of human AN3-CA cell growth in a cell viability assay.

ASPC1 = test system: ASPC1;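 note: growth inhibition of AsPC-1 cells, read out with a cell viability assay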
Description: SANGER: Inhibition of human AsPC-1 cell growth in a cell viability assay.

BHY = test system: BHY;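 note: cell growth inhibition read out by a viability assay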
Description: SANGER: Inhibition of human BHY cell growth in a cell viability assay.

CAL-120 = test system: CAL-120;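 note: cell growth inhibition, read out as cell viability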
Description: SANGER: Inhibition of human CAL-120 cell growth in a cell viability assay.

CAL-51 = test system: CAL-51;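 note: human CAL-51 cell line, growth inhibition read out via a cell viability assay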
Description: SANGER: Inhibition of human CAL-51 cell growth in a cell viability assay.

UACC-62 = test system: UACC-62;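 note: growth inhibition of human UACC-62 cells, read out by a cell viability assay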
Description: SANGER: Inhibition of human UACC-62 cell growth in a cell viability assay.

YAPC = test system: YAPC;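 note: growth inhibition of YAPC cells, measured with a cell viability assay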
Description: SANGER: Inhibition of human YAPC cell growth in a cell viability assay.

COLO-679 = test system: COLO-679
Description: SANGER: Inhibition of human COLO-679 cell growth in a cell viability assay.

COLO-680N = test system: COLO-680N;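 note: cell viability assay used to measure inhibition of COLO-680N cell growth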
Description: SANGER: Inhibition of human COLO-680N cell growth in a cell viability assay.

## Cn1cc(/C=C2\C(=O)Nc3cccnc32)c2ccccc21
COLO-741
  IC50: > 2 µM
Calu-3
  IC50: > 2 µM
G-361
  IC50: 0.211 µM
GAMG
  IC50: > 2 µM
H4
  IC50: > 2 µM
HCC1806
  IC50: > 2 µM
HCC1937
  IC50: > 2 µM
HGC-27
  IC50: > 2 µM
HO-1-N-1
  IC50: > 2 µM
J82
  IC50: > 2 µM
KU-19-19
  IC50: > 2 µM
KYSE-150 cell line
  IC50: > 2 µM
KYSE-510
  IC50: > 2 µM
LCLC-97TM1
  IC50: > 2 µM
LN-405
  IC50: > 2 µM
MDA-MB-231
  IC50: > 2 µM
MDA-MB-453
  IC50: > 2 µM
MKN-7
  IC50: > 2 µM
NB12
  IC50: > 2 µM
NCI-H1437
  IC50: > 2 µM
NCI-H1623
  IC50: > 2 µM
NCI-H1693
  IC50: > 2 µM
NCI-H2452
  IC50: > 2 µM
NCI-H292
  IC50: > 2 µM
NCI-H520
  IC50: > 2 µM
NCI-H661
  IC50: > 2 µM
NCI-H727
  IC50: > 2 µM
NY
  IC50: > 2 µM
OE33
  IC50: > 2 µM
PC-14
  IC50: > 2 µM
PC-3
  IC50: > 2 µM
RCM-1
  IC50: > 2 µM
RMG-I
  IC50: > 2 µM
RO82-W-1
  IC50: > 2 µM
RVH-421
  IC50: > 2 µM
SK-MES-1
  IC50: > 2 µM
SK-OV-3
  IC50: 0.397 µM
SW13
  IC50: > 2 µM
SW1463
  IC50: > 2 µM
T47D
  IC50: > 2 µM
A204
  IC50: > 2 µM
AN3-CA
  IC50: > 2 µM
ASPC1
  IC50: > 2 µM
BHY
  IC50: > 2 µM
CAL-120
  IC50: > 2 µM
CAL-51
  IC50: > 2 µM
UACC-62
  IC50: > 2 µM
YAPC
  IC50: > 2 µM
COLO-679
  IC50: > 2 µM
COLO-680N
  IC50: > 2 µM

## NC(=O)c1ncn([C@@H]2O[C@H](COP(=O)(O)O)[C@@H](O)[C@H]2O)c1N
COLO-741
  IC50: > 2000 µM
Calu-3
  IC50: 1920 µM
GAMG
  IC50: > 2000 µM
H4
  IC50: > 2000 µM
HCC1806
  IC50: 361 µM
HCC1937
  IC50: > 2000 µM
HGC-27
  IC50: 1320 µM
HO-1-N-1
  IC50: 793 µM
J82
  IC50: > 2000 µM
KU-19-19
  IC50: > 2000 µM
KYSE-150 cell line
  IC50: 1010 µM
KYSE-510
  IC50: 905 µM
LCLC-97TM1
  IC50: 917 µM
LN-405
  IC50: > 2000 µM
MDA-MB-231
  IC50: > 2000 µM
MDA-MB-453
  IC50: > 2000 µM
MKN-7
  IC50: > 2000 µM
NB12
  IC50: > 2000 µM
NCI-H1437
  IC50: 599 µM
NCI-H1623
  IC50: > 2000 µM
NCI-H1693
  IC50: > 2000 µM
NCI-H2452
  IC50: > 2000 µM
NCI-H292
  IC50: > 2000 µM
NCI-H520
  IC50: 744 µM
NCI-H661
  IC50: > 2000 µM
NCI-H727
  IC50: > 2000 µM
NY
  IC50: 495 µM
OE33
  IC50: 1330 µM
PC-14
  IC50: 379 µM
PC-3
  IC50: 349 µM
RCM-1
  IC50: > 2000 µM
RMG-I
  IC50: > 2000 µM
RO82-W-1
  IC50: > 2000 µM
RVH-421
  IC50: > 2000 µM
SK-MES-1
  IC50: > 2000 µM
SK-OV-3
  IC50: > 2000 µM
SW13
  IC50: > 2000 µM
SW1463
  IC50: > 2000 µM
T47D
  IC50: 413 µM
A204
  IC50: > 2000 µM
AN3-CA
  IC50: > 2000 µM
ASPC1
  IC50: 1330 µM
BHY
  IC50: 405 µM
CAL-120
  IC50: 838 µM
UACC-62
  IC50: > 2000 µM
YAPC
  IC50: > 2000 µM
COLO-680N
  IC50: > 2000 µM

## C[C@]12O[C@H](C[C@]1(O)CO)n1c3ccccc3c3c4c(c5c6ccccc6n2c5c31)CNC4=O [LESTAURTINIB]
COLO-741
  IC50: 1.43 µM
Calu-3
  IC50: > 2 µM
G-361
  IC50: 0.221 µM
GAMG
  IC50: 0.382 µM
H4
  IC50: 0.0135 µM
HCC1806
  IC50: 0.127 µM
HCC1937
  IC50: > 2 µM
HGC-27
  IC50: 0.19 µM
HO-1-N-1
  IC50: 0.298 µM
J82
  IC50: > 2 µM
KU-19-19
  IC50: 1.33 µM
KYSE-150 cell line
  IC50: 0.651 µM
KYSE-510
  IC50: > 2 µM
LCLC-97TM1
  IC50: 0.427 µM
LN-405
  IC50: > 2 µM
MDA-MB-231
  IC50: 0.586 µM
MDA-MB-453
  IC50: 1.91 µM
MKN-7
  IC50: 1.81 µM
NB12
  IC50: 1.31 µM
NCI-H1437
  IC50: > 2 µM
NCI-H1623
  IC50: 1.65 µM
NCI-H1693
  IC50: > 2 µM
NCI-H2452
  IC50: 1.54 µM
NCI-H292
  IC50: 0.0914 µM
NCI-H520
  IC50: 0.203 µM
NCI-H661
  IC50: > 2 µM
NCI-H727
  IC50: 0.768 µM
NY
  IC50: > 2 µM
OE33
  IC50: > 2 µM
PC-14
  IC50: 0.449 µM
PC-3
  IC50: 1.71 µM
RCM-1
  IC50: 1.59 µM
RMG-I
  IC50: > 2 µM
RO82-W-1
  IC50: > 2 µM
RVH-421
  IC50: 0.244 µM
SK-MES-1
  IC50: 0.0465 µM
SK-OV-3
  IC50: 0.224 µM
SW13
  IC50: 0.617 µM
SW1463
  IC50: > 2 µM
T47D
  IC50: > 2 µM
A204
  IC50: 0.152 µM
AN3-CA
  IC50: 1.25 µM
ASPC1
  IC50: 1.62 µM
BHY
  IC50: 0.872 µM
CAL-120
  IC50: 0.336 µM
CAL-51
  IC50: 0.278 µM
UACC-62
  IC50: 1.12 µM
YAPC
  IC50: > 2 µM
COLO-679
  IC50: 0.383 µM
COLO-680N
  IC50: > 2 µM

— ChEMBL document CHEMBL1201861, “Genomics of Drug Sensitity in Cancer screening data, Wellcome Trust Sanger Institute”
